Key:
[1] = test system: breast cancer stem cells (CSCs); conditions: Mai T T et al. 2012; cited from earlier work
[2] = test system: hepatic monocytes; test: IL-10-deficient mice: hepatic monocytes (flow cytometry, real-time PCR); type: in vivo
Procedure: (§1) 8-week-old IL-10-deficient male mice (weighing 25 g to 28 g) were orally administered with 3 g/kg ethanol and 50 mg/kg ginsenoside F2, together with a normal diet, every day for 2 weeks (E+GF2). A control group was fed with an equal amount of ethanol and vehicle instead of ginsenoside F2 (E+Veh). 2 weeks later, the sera, liver tissues, and hepatic monocytes were obtained from the mice by autopsy. Thereafter, in the same manner as in Example 1. (1), the serum ALT, AST, TG, and cholesterol levels were measured, and necrotic foci were examined in the liver tissue to count the number of necrotic foci in two sections of the liver. In the hepatic monocytes, macrophage and neutrophil expression levels were examined by flow cytometry using F4/80 or Gr1 antigen marker.

[3] = test system: Naive T cells; test: Differentiation of naive T cells into IL-17-producing Th17 cells; type: cell-based, mice; conditions: 0 μM to 30 μM
Procedure: Naive T cells were isolated from mice, and treated with 5 ng/mL TGF-β1 and 20 ng/mL IL-6, and then cultured in a CD3/28 antibody-coated dish for 3.5 days to differentiate the cells into proinflammatory Th17 cells (T helper 17 cells). In this regard, the cells were also treated with ginsenoside F2 by varying its concentration (0 μM to 30 μM), and markers for Th17 cells were examined, and the results are shown in FIGS. 7a to 7c. N represents naive T cells treated with none of TGF-β1, IL-6, and ginsenoside F2.

[4] = test system: male mice; test: Measurement of serum ALT, AST, TG and total cholesterol levels in ethanol-fed mice; type: in vivo; conditions: 50 mg/kg oral with 3 g/kg ethanol daily for 2 weeks
Procedure: (§2) 50 mg/kg of ginsenoside F2 (indicated by GF2 in Drawing) dissolved in 3 g/kg of ethanol, together with a normal diet, were orally administered to 8-week-old male mice (weighing 25 g to 28 g) between 3 PM and 4 PM every day for 2 weeks. After 2 weeks, they were sacrificed, and the following experiment was performed.
Blood was collected from mouse abdominal aorta and centrifuged using a centrifuge at 3,300 rpm for 10 minutes to separate only the serum. The levels of ALT (alanine aminotransferase) and AST ([…]) in the serum were measured using a kit of IDEXX Laboratories (USA) in accordance with the manufacturer's instructions by VetTEST (IDEXX, USA). Further, 50 mg of the hepatic tissue was excised and ground, and then a chloroform-methanol (2:1) solution was added thereto, followed by centrifugation. The lipid components contained in the hepatic tissue were extracted, and the levels of triglyceride (TG) and total cholesterol in the extract solution were measured using a kit of IDEXX Laboratories (USA) in accordance with the manufacturer's instructions by VetTEST.

[5] = test system: liver tissues; test: Western blotting of proteins extracted from the liver tissues; type: in vivo, mice; conditions: FIG. 4c
Procedure: as §2
Expression of fat oxidation-inducing pAMPK was increased and expression of lipogenic SREBP1c and FAS was reduced by administration of ginsenoside F2.

[6] = test system: liver tissue; test: Liver histological analysis (H&E, TUNEL, Oil-red O staining); type: in vivo, mice; conditions: 50 mg/kg oral with 3 g/kg ethanol, 2 weeks
[7] = test system: hepatic stellate cells separated from mouse liver; test: Lipogenesis-related index in hepatic stellate cells separated from mouse liver; type: in vivo; conditions: EtOH+GF2 vs EtOH+Vehicle; FIG. 4b
Procedure: as §2

[8] = test system: co-cultured hepatocytes; test: Co-culture with ethanol: co-cultured hepatocytes (Western blotting, real-time PCR); type: cell-based, mice; conditions: 100 mM ethanol 12 hours, then 30 μM for 6 or 12 hours
Procedure: (§3) During the culture, they were treated with 100 mM ethanol for 12 hours, and then 30 μM ginsenoside F2 for 6 hours or 12 hours.

[9] = test system: IL-10-deficient male mice; test: IL-10-deficient mice: serum levels and necrotic foci of liver tissue; type: in vivo; conditions: 50 mg/kg oral with 3 g/kg ethanol daily for 2 weeks
Procedure: as §1

[10] = test system: glioblastoma; conditions: xenograft model in SD rats; Shin J Y et. al. 2012; cited from earlier work
[11] = test system: human hepatocyte cell line HepG2A; test: LXR-mediated fat synthesis in HepG2A (real-time PCR); type: cell-based
Procedure: To examine a fat synthesis inhibition mechanism of ginsenoside F2, human hepatocyte cell line HepG2A was treated with 30 μM ginsenoside F2, and 30 minutes later, further treated with 10 μM TO901317, which induces fat synthesis as an LXR agonist stimulating fatty acid synthesis, followed by culture for 9 hours.
Further, HepG2A was treated with ginsenoside F2 by varying its concentration from 0 μM to 100 μM, and cultured for 12 hours.

[12] = test system: hepatocytes separated from mouse liver; test: Lipogenesis-related index in hepatocytes separated from mouse liver; type: in vivo; conditions: EtOH+GF2 vs EtOH+Vehicle; FIG. 4a
Procedure: as §2

[13] = test system: Hepatic stellate cells; test: Hepatic stellate cells treated with TO901317 (real-time PCR and Western blotting); type: cell-based; conditions: 30 μM, 30 minutes later 10 μM TO901317, culture 12 hours
Procedure: Hepatic stellate cells were treated with 30 μM of ginsenoside F2, and 30 minutes later, further treated with 10 μM TO901317, followed by culture for 12 hours. FIGS. 5f and 5g show the results of real-time PCR and Western blotting of the cultured hepatic stellate cells.

[14] = test system: co-cultured hepatic stellate cells; test: Co-culture with ethanol: co-cultured hepatic stellate cells; type: cell-based, mice; conditions: 100 mM ethanol 12 hours, then 30 μM for 6 or 12 hours; FIG. 5d
Procedure: as §3

[15] = test system: mouse serum; test: ELISA of mouse serum (cytokines); type: in vivo; conditions: compared with real-time PCR results; FIG. 6e
Text: (§4) Mice were fed with 3 g/kg of ethanol together with a normal diet every day for 2 weeks. In this regard, Group 1 (E+Veh) was fed with vehicle, and Group 2 (E+GF2) was fed with ginsenoside F2.
(§5) Further, the isolated monocytes were subjected to real-time PCR. As a result, expression of the inflammatory cytokines TNF-α, IL-6, and IL-17 increased by alcohol was inhibited by ginsenoside F2, and expression of anti-inflammatory cytokine IL-10 was increased thereby (FIG. 6d). These effects are consistent with the results of ELISA of mouse serum (FIG. 6e).

[16] = test system: isolated monocytes; test: Real-time PCR of isolated hepatic monocytes of ethanol-fed mice; type: in vivo; conditions: FIG. 6d
Text: as §4, §5

[17] = test system: monocytes isolated from the liver; test: Flow cytometry of monocytes / inflammatory cells isolated from the liver of ethanol-fed mice; type: in vivo; conditions: 3 g/kg ethanol daily for 2 weeks
Procedure: as §4
Thereafter, monocytes were isolated from the liver, and stained with the macrophage markers, CD11b and F4/80, followed by flow cytometry. As a result, treatment of ginsenoside F2 reduced a percentage of macrophage (FIG. 6a). Flow cytometry was also performed using the neutrophil markers CD11b and Gr-1. As a result, treatment of ginsenoside F2 reduced a percentage of neutrophil (FIG. 6b).
Further, inflammatory cells in the liver were stained with regulatory T cell (Treg) markers, CD4, CD25, and Foxp3. As a result, treatment of ginsenoside F2 increased regulatory T cells, and decreased Th17 cells (IL-17 and CD4 positive) which are one of proinflammatory cells.

[18] = 50 mg/kg, 2 weeks, flow cytometry, FIGS. 8d and 8e
[19] = real-time PCR using monocytes, FIG. 8h
[20] = 5 ng/mL TGF-β1 and 20 ng/mL IL-6, 3.5 days, FIGS. 7a and 7b
[21] = 0 μM to 100 μM, cultured for 12 hours, FIG. 5f
[22] = 30 μM, 30 minutes later 10 μM TO901317, culture 9 hours, real-time PCR, FIG. 5e

SMILES: CC(C)=CCC[C@](C)(O[C@@H]1O[C@H](CO)[C@@H](O)[C@H](O)[C@H]1O)[C@H]1CC[C@]2(C)[C@@H]1[C@H](O)C[C@@H]1[C@@]3(C)CC[C@H](O[C@@H]4O[C@H](CO)[C@@H](O)[C@H](O)[C@H]4O)C(C)(C)[C@@H]3CC[C@]12C [ginsenoside F2]
- cell apoptosis in breast cancer stem cells [1]: induces cell apoptosis accompanied by autophagy
- other immune cells ([2]; 50 mg/kg, 2 weeks, FIG. 8f): no significant effects
- CD4+CD25+Foxp3+ regulatory T cells ([2]; 50 mg/kg, 2 weeks, FIG. 8g): increased
- expression of macrophage (F4/80) [2, 18]: no significant effects
- expression of neutrophil (Gr1) [2, 18]: no significant effects
- expression of Foxp3 [2, 19]: increased
- expression of inflammatory cytokine IL-6 [2, 19]: increased
- expression of inflammatory cytokine IL-17 [2, 19]: increased
- IL-17-expressing Th17 cells (FACS) [3, 20]: decreased
- anti-inflammatory cytokine IL-10 (FACS) [3, 20]: increased
- Th17 cell-specific transcription factor RORγt ([3]; real-time PCR, FIG. 7c): decreased
- Th17 cell-specific transcription factor STAT3 ([3]; real-time PCR, FIG. 7c): decreased
- expression of Abca1 ([3]; real-time PCR, FIG. 7c): decreased
- total cholesterol level increased by alcohol ([4]; FIG. 2): reduced
- liver injury index ALT level ([4]; FIG. 2(a)): did not significantly increase
- AST level ([4]; FIG. 2(b)): lower
- fatty liver index, TG level ([4]; FIG. 2(c)): reduced to the normal level
- Expression of fat oxidation-inducing pAMPK [5]: increased
- expression of lipogenic FAS [5]: reduced
- expression of lipogenic SREBP1c [5]: reduced
- Triglyceride accumulation (Oil-red O staining) ([6]; FIG. 3a): reduced
- cell damage (TUNEL staining) ([6]; FIG. 3a): reduced
- ethanol-induced inflammation (H&E staining) ([6]; FIG. 3a): reduced
- TUNEL-positive cell death caused by alcohol administration (statistical analysis) ([6]; FIG. 3b): remarkably reduced
- triglycerides in the liver tissue (statistical analysis) ([6]; FIG. 3c): remarkably reduced
- expression of DAGL-α,β [7]: significantly reduced
- fatty acid amide hydrolase (FAAH) expression [7]: significantly increased
- expression of lipogenic FAS ([8]; Western blotting, FIG. 5b): decreased
- expression of lipogenic SREBP1c ([8]; Western blotting, FIG. 5b): decreased
- expression of lipolytic pAMPK ([8]; Western blotting, FIG. 5b): increased
- expression of CB1R ([8]; real-time PCR, FIG. 5c): reduced
- expression of FAS ([8]; real-time PCR, FIG. 5c): reduced
- expression of SREBP1c ([8]; real-time PCR, FIG. 5c): reduced
- ALT level ([9]; FIG. 8a): no significant effects
- TG level ([9]; FIG. 8a): no significant effects
- cholesterol level ([9]; FIG. 8a): no significant effects
- necrotic foci of the liver tissue ([9]; FIGS. 8b and 8c): no great changes
- anti-cancer effects on glioblastoma [10]: exhibits anti-cancer effects
- concentration at which an excellent inhibitory effect on SREBP1c and FAS expression was observed [11, 21]: ≥ 40 µM
- expression of FAS [11, 21]: reduced
- expression of SREBP1c [11, 21]: reduced
- expression of FAS increased by LXR agonist TO901317 [11, 22]: inhibit
- expression of SREBP1c increased by LXR agonist TO901317 [11, 22]: inhibit
- expression of ADH1 [12]: significantly reduced
- expression of CB1R [12]: significantly reduced
- expression of CYP2e1 [12]: significantly reduced
- expression of FAS [12]: significantly reduced
- expression of SREBP1c [12]: significantly reduced
- expression of glutamate receptor mGluR1 or 5 [13]: significantly increased
- expression of DAGL-α,β [14]: reduced
- cytokine effects (TNF-α, IL-6, IL-17, IL-10) by ELISA of mouse serum [15]: consistent
- expression of anti-inflammatory cytokine IL-10 [16]: increased
- expression of inflammatory cytokine IL-6 increased by alcohol [16]: inhibited
- expression of inflammatory cytokine IL-17 increased by alcohol [16]: inhibited
- expression of inflammatory cytokine TNF-α increased by alcohol [16]: inhibited
- Th17 cells (IL-17 and CD4 positive) ([17]; E+GF2 vs E+Veh): decreased
- regulatory T cells (CD4, CD25, Foxp3) ([17]; E+GF2 vs E+Veh): increased
- percentage of macrophage (CD11b, F4/80) ([17]; E+GF2 vs E+Veh, FIG. 6a): reduced
- percentage of neutrophil (CD11b, Gr-1) ([17]; E+GF2 vs E+Veh, FIG. 6b): reduced
- percentage of CD4 T cells ([17]; FIG. 6c): no significant effects
- percentage of CD8 T cells ([17]; FIG. 6c): no significant effects
- percentage of NK cells ([17]; FIG. 6c): no significant effects
- percentage of NKT cells ([17]; FIG. 6c): no significant effects
